Measured values published in PubChem BioAssay (NCI).
“And” between values parts separate entries of the source, which are not always exact repeats. Equal entries are not always repeated.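 How tested: cells in 96-well plates exposed to compound for 48 hours at five concentrations. Abbreviation: GI50, concentration required for 50% inhibition of growth. TGI: total growth inhibition.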

Key:
Experiment in all cases: NCI anticancer screen, dose series, 48 h
MDA-N = system: MDA-N
DLD-1 colon = system: DLD-1 colon
DMS 273 small cell lung = system: DMS 273 small cell lung
M19-MEL melanoma = system: M19-MEL melanoma
SNB-78 CNS = system: SNB-78 CNS
DMS 114 small cell lung = system: DMS 114 small cell lung
HOP-18 NSCLC = system: HOP-18 NSCLC
RXF-631 renal = system: RXF-631 renal
XF 498 CNS = system: XF 498 CNS

| Compound | TGI (MDA-N) [µM] | TGI (DLD-1 colon) | TGI (DMS 273 small cell lung) [µM] | TGI (M19-MEL melanoma) | TGI (SNB-78 CNS) [µM] | TGI (DMS 114 small cell lung) | TGI (HOP-18 NSCLC) | TGI (RXF-631 renal) | TGI (XF 498 CNS) [µM] | GI50 (DLD-1 colon) [µM] | GI50 (DMS 114 small cell lung) [µM] | GI50 (DMS 273 small cell lung) [µM] | GI50 (HOP-18 NSCLC) | GI50 (M19-MEL melanoma) [µM] | GI50 (SNB-78 CNS) [µM] | GI50 (XF 498 CNS) [µM] | GI50 (RXF-631 renal) [µM] |
| --- | --- | --- | --- | --- | --- | --- | --- | --- | --- | --- | --- | --- | --- | --- | --- | --- | --- |
| COC(=O)c1cc(-c2ccc3ccccc3c2)[nH]c(=O)c1C#N | > 100 |  |  |  |  |  |  |  |  |  |  |  |  |  |  |  |  |
| CC(=O)OCCOCn1c2ccccc2c2c3c(c4c5ccccc5n(COCCOC(C)=O)c4c21)C(=O)N(Cc1ccccc1)C3=O |  | > 100 µM | > 100 | > 100 µM | > 100 |  |  |  |  |  |  |  |  |  |  |  |  |
| N#CCCN(CCC#N)c1ccc(/C=C(/NC(=O)c2cc([N+](=O)[O-])ccc2Cl)C(=O)N=[N+]=[N-])cc1 |  | > 100 µM | > 100 | > 100 µM | > 100 | > 100 µM | > 100 µM | > 100 µM |  |  |  |  |  |  |  |  |  |
| C/C(NNC(=O)c1ccccc1O)=C1\C=Nc2ccccc2S1 |  | > 100 µM | > 100 | > 100 µM | > 100 |  | 49.6 µM |  | > 100 |  |  |  |  |  |  |  |  |
| COc1cccc(/C=N/[N-]C(=O)c2ccncc2)c1[O-].[Mn+2].[OH3+] |  | > 100 µM | 73.5 | 46.4 µM | > 100 | 58.7 µM | > 100 µM |  | 86.9 | 5.23 | 14.6 | 6.73 | 14.7 µM | 7.54 | > 100 | 12.3 |  |
| CCCCCCCCCCC(=O)CCCCCCC(=O)O |  | 47.2 µM | 47.1 | 74.7 µM | > 100 | 50.3 µM | 39 µM | 43.3 µM | 97.8 |  |  |  |  |  |  |  |  |
| COc1ccc(C(c2ccccc2C(=O)O)c2ccc(OC)c3ccccc23)c2ccccc12 |  | 22.2 µM | 32.4 | 27.6 µM | 50.4 | 21.1 µM | 13.4 µM |  | 46.7 |  |  |  |  |  |  |  |  |
| CCCCCCCCSC(=O)NCCCC |  | > 100 µM | > 100 | > 100 µM |  |  | > 100 µM | > 100 µM | 47.2 |  |  |  |  |  |  |  |  |
| CCCCC(C(=O)C(=O)Nc1ccc(C)cc1C)C(=O)C(C)C (stereo unspecified) |  | > 100 µM | > 100 | > 100 µM | > 100 | > 100 µM | > 100 µM | > 100 µM | > 100 |  |  |  |  |  |  |  |  |
| O/N=C1/CCCC/C1=C/C=C/c1ccccc1 |  | > 100 µM |  | 43.8 µM | 77.7 |  | 78.1 µM |  |  |  |  |  |  |  |  |  |  |
| C#CCN(N=O)C(=O)NC(CCCCNC(=O)OCc1ccccc1)C(=O)OCc1ccccc1 (stereo unspecified) |  | 42.7 µM | > 100 | > 100 µM | > 100 | 44 µM | 44.9 µM |  |  |  |  |  |  |  |  |  |  |
| CC(=O)Nc1ccccc1-c1nc2ccccc2nc1-c1ccccc1 |  | > 100 µM | > 100 | > 100 µM | > 100 | > 100 µM | > 100 µM |  | > 100 |  |  |  |  |  |  |  |  |
| O=C(NCCCCCCCCCCCCNC(=O)c1cnc2ccccc2n1)c1cnc2ccccc2n1 |  | > 100 µM | > 100 | > 100 µM | > 100 | > 100 µM | 79.4 µM | > 100 µM |  |  |  |  |  |  |  |  |  |
| O=C1c2c(O)cccc2C(C(=O)CCCCCC(=O)C2c3cccc(O)c3C(=O)c3c(O)cccc32)c2cccc(O)c21 |  | 8.88 µM and 16.7 µM | 13.3 | 2.5 µM and 9.2 µM |  | 1.29 µM and 9.22 µM | 4.28 µM and 14.9 µM | 7.98 µM and 13.6 µM | 1.2 | 7.67 | 3.16 |  | 7.95 µM | 2.4 | 7.55 |  | 2.99 |
| CCc1cccc(C(C)C)c1NC(=O)CC1Sc2ccccc2NC1=O (stereo unspecified) |  | > 100 µM | > 100 | > 100 µM | > 100 | > 100 µM | > 100 µM |  | > 100 |  |  |  |  |  |  |  |  |
| NC(Cc1ccccc1)C(=O)OCN1C(=O)C2C3C=CC(C2C1=O)C1C2C(=O)N(COC(=O)C(N)Cc4ccccc4)C(=O)C2C31 (stereo unspecified) |  | 51.4 µM and 60.6 µM |  | 38.4 µM |  | 40.4 µM and 33.8 µM | > 100 µM and 52.1 µM |  | 71.7 |  |  |  | 45.3 µM and 20 µM | 21.6 |  |  |  |
| C[C@@H](C1CC[C@H]2[C@@H]3[C@@H]4O[C@@H]4[C@@]4(O)CC=CC(=O)[C@]4(C)[C@H]3C[C@H](O)[C@]12C)[C@H]1C[C@]2(C)O[C@]2(C)C(=O)O1 (stereo partly specified) | > 100 |  |  |  |  |  |  |  |  |  |  |  |  |  |  |  |  |
| O=C(O)C1C2C=CC(O2)C1C(=O)NCc1cccnc1 (stereo unspecified) | > 100 |  |  |  |  |  |  |  |  |  |  |  |  |  |  |  |  |
| CC12Nc3ccccc3C1=C(c1ccccc1)CC1C(=O)OC(=O)C12 (stereo unspecified) |  | > 100 µM | > 100 | > 100 µM | > 100 | > 100 µM |  | > 100 µM | > 100 |  |  |  |  |  |  |  |  |
